Tests used:
[1] = tested on: K562; experiment: Cytotoxicity on K562 cancer cell line; format: cell-based; settings: Homo sapiens; K562 chronic myelogenous leukemia; 96 h; 0.01-100 μM
Method: (§1) The effect of the compounds described herein on tumor cells was determined by the assay described by Latham et al., Oncogene 12:827-837 (1996). Tumor cells K562 (chronic myelogenous leukemia; leukemia cell line +ve for Bcr-Abl) or DU145 (prostate cancer) were plated in 12-well dishes at a cell density of 2.5×10^4 cells per well. The plated cells were treated 24 h. later with a DMSO solution of a compound as described herein at multiple concentrations ranging from 0.01 μM to 100 μM. The plates were examined 96 h. later under an inverted microscope, Olympus CK-2 using a 10× objective, and compound activity was noted by physical observation. When necessary, the total number of viable cells was determined by trypsinizing the wells and counting the number of viable cells, as determined by trypan blue exclusion, using a hemacytometer.

[2] = tested on: DU145; experiment: Cytotoxicity on DU145 cancer cell line; format: cell-based; settings: Homo sapiens, DU-145; DU145 prostate cancer; 96 h; 0.01-100 μM
Method: as §1

`N#C/C=C/c1cnc(N2CCOCC2)nc1NC1CCCC1` [Compound 8z, (E)-3-[4-(Cyclopentylamino)-2-morpholinopyrimidin-5-yl]acrylonitrile] was tested, and the IC50 [1] was 1 to 25 µM and the IC50 [2] was 1 to 25 µM.

`CNc1nc(Nc2ccc3[nH]ccc3c2)ncc1/C=C/S(=O)(=O)c1ccc(F)cc1F` [Compound 15a, 5-{2-[2,4-(Difluorophenyl)sulfonyl]vinyl}-N^2-(1H-indol-5-yl)-N^4-methylpyrimidine-2,4-diamine] showed an IC50 [1] of 1 to 25 µM and an IC50 [2] of 1 to 25 µM.

`CN1CCN(c2ccc(Nc3ncc(/C=C/S(=O)(=O)c4ccc(F)cc4F)c(NC4CCCC4)n3)cc2)CC1` [Compound 15b, N^4-Cyclopentyl-5-{2-[(2,4-difluorophenyl)sulfonyl]vinyl}-N^2-[4-(4-methylpiperazin-1-yl)phenyl]pyrimidine-2,4-diamine] was tested, and the IC50 [1] was 1 to 25 µM and the IC50 [2] was 1 to 25 µM.

`CNc1nc(Nc2ccc3cc[nH]c3c2)ncc1/C=C/S(=O)(=O)c1ccc(F)cc1F` [Compound 15c, 5-{2-[2,4-(Difluorophenyl)sulfonyl]vinyl}-N^2-(1H-indol-6-yl)-N^4-methylpyrimidine-2,4-diamine] gave an IC50 [1] of 1 to 25 µM and an IC50 [2] of 1 to 25 µM.

For `CNc1nc(Nc2ccc(N3CCN(C)CC3)cc2)ncc1/C=C/S(=O)(=O)c1ccc(F)cc1F` [Compound 15d, (E)-5-{2-[(2,4-Difluorophenyl)sulfonyl]vinyl}-N^4-methyl-N^2-[4-(4-methylpiperazin-1-yl)phenyl]pyrimidine-2,4-diamine], the IC50 [1] was 1 to 25 µM and the IC50 [2] was 1 to 25 µM.

With `CNc1nc(Nc2ccc(N3CCOCC3)cc2)ncc1/C=C/S(=O)(=O)c1ccc(F)cc1F` [Compound 15e, (E)-5-{2-[(2,4-Difluorophenyl)sulfonyl]vinyl}-N^4-methyl-N^2-(4-morpholinophenyl)pyrimidine-2,4-diamine] the IC50 [1] was 50 to 100 µM and the IC50 [2] was 50 to 100 µM.

In the case of `CNc1nc(Nc2ccc(OC)cc2)ncc1/C=C/S(=O)(=O)c1ccc(F)cc1F` [Compound 15f, (E)-5-{2-[(2,4-Difluorophenyl)sulfonyl]vinyl}-N^2-(4-methoxyphenyl)-N^4-methylpyrimidine-2,4-diamine], the IC50 [1] is reported as 25 to 50 µM and the IC50 [2] is reported as 25 to 50 µM.

With `CNc1nc(Nc2cc(OC)c(OC)c(OC)c2)ncc1/C=C/S(=O)(=O)c1ccc(F)cc1F` [Compound 15g, (E)-5-{2-[(2,4-Difluorophenyl)sulfonyl]vinyl}-N^4-methyl-N^2-(3,4,5-trimethoxyphenyl)pyrimidine-2,4-diamine] the IC50 [1] was 50 to 100 µM and the IC50 [2] was 1 to 25 µM.

`CNc1nc(Nc2nc3ccccc3[nH]2)ncc1/C=C/S(=O)(=O)c1ccc(F)cc1F` [Compound 15h, (E)-N^2-(1H-Benzo[d]imidazol-2-yl)-5-{2-[(2,4-difluorophenyl)sulfonyl]vinyl}-N^4-methylpyrimidine-2,4-diamine] showed an IC50 [1] of 1 to 25 µM and an IC50 [2] of 1 to 25 µM.

Compound `CNc1nc(Nc2ccc3[nH]ncc3c2)ncc1/C=C/S(=O)(=O)c1ccc(F)cc1F` [Compound 15i, (E)-5-{2-[(2,4-Difluorophenyl)sulfonyl]vinyl}-N^2-(1H-indazol-5-yl)-N-methylpyrimidine-2,4-diamine] has an IC50 [1] of 1 to 25 µM and an IC50 [2] of 1 to 25 µM.

With `COc1ccc(S(=O)(=O)/C=C/c2cnc(Nc3ccc(N4CCN(C)CC4)cc3)nc2NC2CCCC2)cc1` [Compound 15j, (E)-N^4-Cyclopentyl-5-{2-[(4-methoxyphenyl)sulfonyl]vinyl}-N^2-[4-(4-methylpiperazin-1-yl)phenyl]pyrimidine-2,4-diamine] the IC50 [1] was 1 to 25 µM and the IC50 [2] was 1 to 25 µM.

For `COc1ccc(S(=O)(=O)/C=C/c2cnc(Nc3ccc4[nH]ccc4c3)nc2NC2CCCC2)cc1` [Compound 15k, (E)-N^4-Cyclopentyl-N^2-(1H-indol-5-yl)-5-{2-[(4-methoxyphenyl)sulfonyl]vinyl}pyrimidine-2,4-diamine], the IC50 [1] was 1 to 25 µM and the IC50 [2] was 1 to 25 µM.

With `CNc1nc(Nc2ccc(N3CCN(C)CC3)cn2)ncc1/C=C/S(=O)(=O)c1ccc(F)cc1F` [Compound 15l, (E)-5-{2-[(2,4-Difluorophenyl)sulfonyl]vinyl}-N^4-methyl-N^2-[5-(4-methylpiperazin-1-yl)pyridin-2-yl]pyrimidine-2,4-diamine] the IC50 [1] was 1 to 25 µM and the IC50 [2] was 1 to 25 µM.
